# Laboratory results reported in publication PMC5218480 (PLoS ONE, 2017).
# Test system: MV-4-11 cells
# Assay: Gene expression microarray analysis (Affymetrix PrimeView) and GSEA
# Type: cell-based, human
# Design: RFU PODN (11730768_x_at) / Fold change /veh PODN (11730768_x_at) / RFU LINC00158 (11744669_a_at) / Fold change /veh LINC00158 (11744669_a_at) / RFU DUSP10 (11751237_a_at) / Fold change /veh DUSP10 (11751237_a_at) / RFU ID3 (11757404_x_at) / Fold change /veh ID3 (11757404_x_at) / RFU PLEKHG5 (11737974_s_at) / Fold change /veh PLEKHG5 (11737974_s_at) / RFU LRRC4B (11730491_at) / Fold change /veh LRRC4B (11730491_at) / RFU GIMAP4 (11747438_a_at) / Fold change /veh GIMAP4 (11747438_a_at) / RFU KRT8 (11758183_x_at) / Fold change /veh KRT8 (11758183_x_at) / RFU CNN1 (11734310_a_at) / Fold change /veh CNN1 (11734310_a_at) / RFU VPS37D (11726825_at) / Fold change /veh VPS37D (11726825_at) / RFU C10orf10 (11716522_x_at) / Fold change /veh C10orf10 (11716522_x_at) / RFU KIR2DL2 /// KIR2DL4 /// KIR2DL5A /// KIR2DL5B /// KIR2DS1 /// KIR2DS2 /// KIR2DS3 /// KIR2DS4 /// KIR3DL3 /// KIR3DL3 /// KIR3DS1 (11738374_at) / Fold change /veh KIR2DL2 /// KIR2DL4 /// KIR2DL5A /// KIR2DL5B /// KIR2DS1 /// KIR2DS2 /// KIR2DS3 /// KIR2DS4 /// KIR3DL3 /// KIR3DL3 /// KIR3DS1 (11738374_at) / RFU C1QL1 (11718748_at) / Fold change /veh C1QL1 (11718748_at) / RFU TMPRSS4 (11747572_a_at) / Fold change /veh TMPRSS4 (11747572_a_at) / RFU HAMP (11756126_x_at) / Fold change /veh HAMP (11756126_x_at) / RFU RNFT2 (11725882_a_at) / Fold change /veh RNFT2 (11725882_a_at) / RFU NR4A2 (11747474_a_at) / Fold change /veh NR4A2 (11747474_a_at) / RFU ABCC12 (11746883_a_at) / Fold change /veh ABCC12 (11746883_a_at) / RFU TMEM136 (11760407_x_at) / Fold change /veh TMEM136 (11760407_x_at) / RFU CLDN22 /// WWC2 (11732394_at) / Fold change /veh CLDN22 /// WWC2 (11732394_at) / RFU HLA-DPB1 (11760878_x_at) / Fold change /veh HLA-DPB1 (11760878_x_at) / RFU SPINT1 (11716480_a_at) / Fold change /veh SPINT1 (11716480_a_at) / RFU GAP43 (11754022_s_at) / Fold change /veh GAP43 (11754022_s_at) / RFU A4GNT (11735810_at) / Fold change /veh A4GNT (11735810_at) / RFU PRB3 (11715151_x_at) / Fold change /veh PRB3 (11715151_x_at) / RFU TUBB4B (11761932_at) / Fold change /veh TUBB4B (11761932_at) / RFU CAPN14 (11732068_a_at) / Fold change /veh CAPN14 (11732068_a_at) / RFU TMCC2 (11721928_a_at) / Fold change /veh TMCC2 (11721928_a_at) / RFU IRGQ (11745062_a_at) / Fold change /veh IRGQ (11745062_a_at) / RFU FAM174B (11720279_a_at) / Fold change /veh FAM174B (11720279_a_at) / RFU TMPRSS4 (11748680_a_at) / Fold change /veh TMPRSS4 (11748680_a_at) / RFU FAM212B (11763350_a_at) / Fold change /veh FAM212B (11763350_a_at) / RFU PLEKHG5 (11743358_a_at) / Fold change /veh PLEKHG5 (11743358_a_at) / RFU ZSCAN30 (11745921_a_at) / Fold change /veh ZSCAN30 (11745921_a_at) / RFU CMKLR1 (11741424_a_at) / Fold change /veh CMKLR1 (11741424_a_at) / RFU LOC101060620 /// MAPK8IP1 (11723275_at) / Fold change /veh LOC101060620 /// MAPK8IP1 (11723275_at) / RFU SPTSSB (11747773_x_at) / Fold change /veh SPTSSB (11747773_x_at) / RFU PRSS12 (11739890_at) / Fold change /veh PRSS12 (11739890_at) / RFU BIN1 (11741810_x_at) / Fold change /veh BIN1 (11741810_x_at) / RFU WNT11 (11732464_a_at) / Fold change /veh WNT11 (11732464_a_at) / RFU C10orf10 (11716521_a_at) / Fold change /veh C10orf10 (11716521_a_at) / RFU C5orf56 (11738089_at) / Fold change /veh C5orf56 (11738089_at) / RFU CYB561 (11721691_x_at) / Fold change /veh CYB561 (11721691_x_at) / RFU ANKRD19P (11752326_a_at) / Fold change /veh ANKRD19P (11752326_a_at) / RFU OR2T12 /// OR2T33 /// OR2T8 (11738714_s_at) / Fold change /veh OR2T12 /// OR2T33 /// OR2T8 (11738714_s_at) / RFU VCAN (11748164_a_at) / Fold change /veh VCAN (11748164_a_at) / RFU JSRP1 (11732532_at) / Fold change /veh JSRP1 (11732532_at) / RFU KRTAP10-11 (11738290_x_at) / Fold change /veh KRTAP10-11 (11738290_x_at) / RFU MYO3A (11730013_a_at) / Fold change /veh MYO3A (11730013_a_at) / RFU EBF3 (11725865_a_at) / Fold change /veh EBF3 (11725865_a_at) / RFU CAMK2N1 (11719241_x_at) / Fold change /veh CAMK2N1 (11719241_x_at) / RFU C5orf56 (11738088_a_at) / Fold change /veh C5orf56 (11738088_a_at) / RFU OLFML3 (11715873_a_at) / Fold change /veh OLFML3 (11715873_a_at) / RFU LOC100653217 /// NTM (11731650_a_at) / Fold change /veh LOC100653217 /// NTM (11731650_a_at) / RFU MAPK11 (11762145_a_at) / Fold change /veh MAPK11 (11762145_a_at) / RFU FIZ1 (11724087_x_at) / Fold change /veh FIZ1 (11724087_x_at) / RFU OASL (11726364_x_at) / Fold change /veh OASL (11726364_x_at) / RFU SOX15 (11748057_x_at) / Fold change /veh SOX15 (11748057_x_at) / RFU CD79A (11719716_a_at) / Fold change /veh CD79A (11719716_a_at) / RFU HIST1H1D (11736915_at) / Fold change /veh HIST1H1D (11736915_at) / RFU CASKIN2 (11723855_a_at) / Fold change /veh CASKIN2 (11723855_a_at) / RFU LOC730098 (11760151_x_at) / Fold change /veh LOC730098 (11760151_x_at) / RFU OR4N2 (11742367_at) / Fold change /veh OR4N2 (11742367_at) / RFU PRRT2 (11749266_a_at) / Fold change /veh PRRT2 (11749266_a_at) / RFU SNX32 (11753110_a_at) / Fold change /veh SNX32 (11753110_a_at) / RFU CDHR5 (11726645_a_at) / Fold change /veh CDHR5 (11726645_a_at) / RFU RCAN1 (11760418_a_at) / Fold change /veh RCAN1 (11760418_a_at) / RFU FAM167A (11723789_a_at) / Fold change /veh FAM167A (11723789_a_at) / RFU FAM26E (11764081_at) / Fold change /veh FAM26E (11764081_at) / RFU ISYNA1 (11749810_s_at) / Fold change /veh ISYNA1 (11749810_s_at) / RFU ACY1 (11761880_at) / Fold change /veh ACY1 (11761880_at) / RFU 11764098_at / Fold change /veh 11764098_at / RFU SAMD14 (11745864_x_at) / Fold change /veh SAMD14 (11745864_x_at) / RFU NPB (11741838_a_at) / Fold change /veh NPB (11741838_a_at) / RFU TMPRSS6 (11731388_a_at) / Fold change /veh TMPRSS6 (11731388_a_at) / RFU KRTAP10-2 (11738614_at) / Fold change /veh KRTAP10-2 (11738614_at) / RFU ARHGAP8 /// PRR5-ARHGAP8 (11727945_x_at) / Fold change /veh ARHGAP8 /// PRR5-ARHGAP8 (11727945_x_at) / RFU KRTAP5-7 /// NADSYN1 (11734609_at) / Fold change /veh KRTAP5-7 /// NADSYN1 (11734609_at) / RFU RASL12 (11751679_a_at) / Fold change /veh RASL12 (11751679_a_at) / RFU CDKN2B (11736163_a_at) / Fold change /veh CDKN2B (11736163_a_at) / RFU PRF1 (11729649_at) / Fold change /veh PRF1 (11729649_at) / RFU, ZNF638 /// ZNF638-IT1 / Fold change vs veh, ZNF638 /// ZNF638-IT1 / RFU, PANK3 / Fold change vs veh, PANK3 / RFU, SH3YL1 / Fold change vs veh, SH3YL1 / RFU, ZEB2 / Fold change vs veh, ZEB2 / RFU, NRIP1 / Fold change vs veh, NRIP1 / RFU, PTTG1IP / Fold change vs veh, PTTG1IP / RFU, CAPN2 / Fold change vs veh, CAPN2 / RFU, MED14 / Fold change vs veh, MED14 / RFU, SNORA58 / Fold change vs veh, SNORA58 / RFU, C1orf63 / Fold change vs veh, C1orf63 / RFU, LRRFIP1 / Fold change vs veh, LRRFIP1 / RFU, NDUFAF7 / Fold change vs veh, NDUFAF7 / RFU, SLC12A2 / Fold change vs veh, SLC12A2 / RFU, IBTK / Fold change vs veh, IBTK / RFU, ESF1 / Fold change vs veh, ESF1 / Fold change vs veh, TMEM50B / RFU, TAOK1 / Fold change vs veh, TAOK1 / RFU, ACBD3 / Fold change vs veh, ACBD3 / RFU, TMA16 / Fold change vs veh, TMA16 / RFU, RWDD3 / Fold change vs veh, RWDD3 / RFU, BCAT1 / Fold change vs veh, BCAT1 / RFU, EDEM3 / Fold change vs veh, EDEM3 / RFU, TMEM33 / Fold change vs veh, TMEM33 / RFU, WDR75 / Fold change vs veh, WDR75 / RFU, AHCTF1 / Fold change vs veh, AHCTF1 / RFU, TFRC / Fold change vs veh, TFRC / RFU, ZDHHC17 / Fold change vs veh, ZDHHC17 / RFU, NOM1 / Fold change vs veh, NOM1 / RFU, ARL8B / Fold change vs veh, ARL8B / RFU, ZBTB11 / Fold change vs veh, ZBTB11 / RFU, TAMM41 / Fold change vs veh, TAMM41 / RFU, KIAA1704 /// LOC100996395 / Fold change vs veh, KIAA1704 /// LOC100996395 / RFU, ING1 / Fold change vs veh, ING1 / RFU, TRMT61B / Fold change vs veh, TRMT61B / RFU, FUBP3 / Fold change vs veh, FUBP3 / RFU, TP53 / Fold change vs veh, TP53 / RFU, TNKS2 / Fold change vs veh, TNKS2 / RFU, ZFP14 / Fold change vs veh, ZFP14 / RFU, ACTR2 / Fold change vs veh, ACTR2 / RFU, PPP3R1 / Fold change vs veh, PPP3R1 / RFU, PIK3R1 / Fold change vs veh, PIK3R1 / RFU, HNRNPA1 / Fold change vs veh, HNRNPA1 / RFU, RNF170 / Fold change vs veh, RNF170 / RFU, ZNF28 / Fold change vs veh, ZNF28 / RFU, RNGTT / Fold change vs veh, RNGTT / RFU, OGT / Fold change vs veh, OGT / RFU, BRD1 / Fold change vs veh, BRD1 / RFU, MARS / Fold change vs veh, MARS / RFU, ZNF655 / Fold change vs veh, ZNF655 / RFU, FAHD1 / Fold change vs veh, FAHD1 / RFU, BDP1 / Fold change vs veh, BDP1 / RFU, LRRCC1 / Fold change vs veh, LRRCC1 / RFU, ARID1A / Fold change vs veh, ARID1A / RFU, ZNF146 / Fold change vs veh, ZNF146 / RFU, ZNF330 / Fold change vs veh, ZNF330 / RFU, GPN3 / Fold change vs veh, GPN3 / RFU, C9orf123 / Fold change vs veh, C9orf123 / RFU, N4BP2L2 / Fold change vs veh, N4BP2L2 / RFU, ARFIP1 / Fold change vs veh, ARFIP1 / RFU, FAM179B / Fold change vs veh, FAM179B / RFU, BCL10 / Fold change vs veh, BCL10 / RFU, UHRF1BP1L / Fold change vs veh, UHRF1BP1L / RFU, BET1 / Fold change vs veh, BET1 / RFU, CNOT2 / Fold change vs veh, CNOT2 / RFU, ZNF268 / Fold change vs veh, ZNF268 / Fold change vs veh, ZNF507 / RFU, DGCR2 / Fold change vs veh, DGCR2 / RFU, WDSUB1 / Fold change vs veh, WDSUB1 / Fold change vs veh, HSP90B1 /// MIR3652 / RFU, ADSS / Fold change vs veh, ADSS / RFU, GK / Fold change vs veh, GK / RFU, ZNF148 / Fold change vs veh, ZNF148 / RFU, TAF9 / Fold change vs veh, TAF9 / RFU, SLC1A5 / Fold change vs veh, SLC1A5 / RFU, SLMO2 / Fold change vs veh, SLMO2 / RFU, ABCC4 / Fold change vs veh, ABCC4 / RFU, LOC101060439 /// RAP1B / Fold change vs veh, LOC101060439 /// RAP1B / RFU, RFX7 / Fold change vs veh, RFX7 / RFU, GTPBP10 / Fold change vs veh, GTPBP10 / RFU, CNEP1R1 / Fold change vs veh, CNEP1R1 / RFU, BIVM-ERCC5 /// ERCC5 / Fold change vs veh, BIVM-ERCC5 /// ERCC5 / RFU, ILF3 / Fold change vs veh, ILF3 / RFU 11762660_at / Fold change /veh 11762660_at / RFU VCAN (11757783_s_at) / Fold change /veh VCAN (11757783_s_at) / RFU DDX43 (11728927_at) / Fold change /veh DDX43 (11728927_at) / RFU KRT8 (11758188_x_at) / Fold change /veh KRT8 (11758188_x_at) / RFU NKD1 (11759106_at) / Fold change /veh NKD1 (11759106_at) / RFU SRD5A1 (11742802_a_at) / Fold change /veh SRD5A1 (11742802_a_at) / RFU TPSAB1 /// TPSB2 (11721975_s_at) / Fold change /veh TPSAB1 /// TPSB2 (11721975_s_at) / RFU GSTM3 (11746129_a_at) / Fold change /veh GSTM3 (11746129_a_at) / RFU IL23R (11737362_x_at) / Fold change /veh IL23R (11737362_x_at) / RFU TMEM51 (11727254_a_at) / Fold change /veh TMEM51 (11727254_a_at) / RFU PIWIL2 (11732686_x_at) / Fold change /veh PIWIL2 (11732686_x_at) / RFU ORM1 (11744905_x_at) / Fold change /veh ORM1 (11744905_x_at) / RFU CCDC152 (11743942_at) / Fold change /veh CCDC152 (11743942_at) / RFU ECM1 (11717891_a_at) / Fold change /veh ECM1 (11717891_a_at) / RFU IL23R (11748794_a_at) / Fold change /veh IL23R (11748794_a_at) / RFU TNFAIP8L3 (11732012_x_at) / Fold change /veh TNFAIP8L3 (11732012_x_at) / RFU MBOAT4 (11741988_at) / Fold change /veh MBOAT4 (11741988_at) / RFU 11764193_at / Fold change /veh 11764193_at / RFU TMEM53 (11763286_at) / Fold change /veh TMEM53 (11763286_at) / RFU MAGEB2 (11727129_at) / Fold change /veh MAGEB2 (11727129_at) / RFU TMEM200A (11744735_a_at) / Fold change /veh TMEM200A (11744735_a_at) / RFU CCDC152 (11751479_a_at) / Fold change /veh CCDC152 (11751479_a_at) / RFU FAM211A (11726209_a_at) / Fold change /veh FAM211A (11726209_a_at) / RFU RGS16 (11746705_a_at) / Fold change /veh RGS16 (11746705_a_at) / RFU VCAN (11755009_s_at) / Fold change /veh VCAN (11755009_s_at) / RFU RHOB (11743442_s_at) / Fold change /veh RHOB (11743442_s_at) / RFU RGS16 (11720943_a_at) / Fold change /veh RGS16 (11720943_a_at) / RFU RGS16 (11720944_at) / Fold change /veh RGS16 (11720944_at) / RFU, VPS4B / Fold change vs veh, VPS4B / RFU, CREB1 / Fold change vs veh, CREB1 / RFU, DNAJC13 / Fold change vs veh, DNAJC13 / RFU, GNAQ / Fold change vs veh, GNAQ / RFU, CDK5R1 / Fold change vs veh, CDK5R1 / RFU, ZRANB3 / Fold change vs veh, ZRANB3 / RFU, CUL4A / Fold change vs veh, CUL4A / RFU, CCNY / Fold change vs veh, CCNY / RFU, UFL1 / Fold change vs veh, UFL1 / RFU, COG3 / Fold change vs veh, COG3 / RFU, DIAPH2 / Fold change vs veh, DIAPH2 / RFU, SKA2 / Fold change vs veh, SKA2 / RFU, AFF3 / Fold change vs veh, AFF3 / RFU, LMF1 / Fold change vs veh, LMF1 / RFU, IPO11 / Fold change vs veh, IPO11 / RFU, DFFB / Fold change vs veh, DFFB / RFU, FOXP1 / Fold change vs veh, FOXP1 / RFU, CARD8 / Fold change vs veh, CARD8 / RFU, STRN3 / Fold change vs veh, STRN3 / RFU, ADK / Fold change vs veh, ADK / RFU, RASSF2 / Fold change vs veh, RASSF2 / RFU, WIPF1 / Fold change vs veh, WIPF1 / RFU, LARP1B / Fold change vs veh, LARP1B / RFU, RASA1 / Fold change vs veh, RASA1 / RFU, RB1 / Fold change vs veh, RB1 / RFU, PPFIA1 / Fold change vs veh, PPFIA1 / RFU, MAT2A / Fold change vs veh, MAT2A / RFU, CCT5 / Fold change vs veh, CCT5 / RFU, WDR92 / Fold change vs veh, WDR92 / RFU, CUX1 / Fold change vs veh, CUX1 / RFU, TTC7A / Fold change vs veh, TTC7A / RFU, TMEM135 / Fold change vs veh, TMEM135 / RFU, DEPTOR / Fold change vs veh, DEPTOR / RFU, CPM / Fold change vs veh, CPM / RFU, DNAJB6 / Fold change vs veh, DNAJB6 / RFU, CACNA2D3 / Fold change vs veh, CACNA2D3 / RFU, DTX4 / Fold change vs veh, DTX4 / RFU, TFCP2 / Fold change vs veh, TFCP2 / RFU, GMCL1 /// GMCL1P1 / Fold change vs veh, GMCL1 /// GMCL1P1 / RFU, AEBP2 / Fold change vs veh, AEBP2 / RFU, SNHG1 /// SNORD22 /// SNORD25 /// SNORD26 /// SNORD27 /// SNORD28 /// SNORD29 /// SNORD31 / Fold change vs veh, SNHG1 /// SNORD22 /// SNORD25 /// SNORD26 /// SNORD27 /// SNORD28 /// SNORD29 /// SNORD31 / Fold change (Aza/veh), C12orf56 (ProbeSet 11735607_a_at) / Fold change (ACY-1035/veh), C12orf56 (ProbeSet 11735607_a_at) / Fold change (Aza/veh), FGFR1OP (ProbeSet 11751329_s_at) / Fold change (ACY-1035/veh), FGFR1OP (ProbeSet 11751329_s_at) / Fold change (Aza/veh), VPS36 (ProbeSet 11739960_a_at) / Fold change (ACY-1035/veh), VPS36 (ProbeSet 11739960_a_at) / RFU SYPL1 (11715823_x_at) / Fold change /veh SYPL1 (11715823_x_at) / RFU IGFBP7 (11715501_s_at) / Fold change /veh IGFBP7 (11715501_s_at) / RFU REEP3 (11722064_at) / Fold change /veh REEP3 (11722064_at) / RFU IGLL1 (11728026_x_at) / Fold change /veh IGLL1 (11728026_x_at): dose or concentration left out as unconfirmed
# Settings: ProbeSet 11732154_at; LIST B
structure (smiles),measurement,value
Nc1ccc(-c2cccs2)cc1NC(=O)c1ccc2c(c1)cc(C1CC1)n2CCN1CCOCC1 [ACY-1035],"RFU, OGT",340.88 RFU
